Data on 27 compounds can be found in ChEMBL document CHEMBL4680232, “Discovery of small molecules targeting GRP78 for antiangiogenic and anticancer therapy” (Eur J Med Chem, 2020).

For test [1], the target named is Endoplasmic reticulum chaperone BiP (Homo sapiens) (UniProt P11021). Put plainly: Binding affinity to human GRP78 at 1 uM measured after 30 mins by UF-ASMS analysis relative to control.
The test system of test [2] is HUVEC. As to the kind of experiment: Antiangiogenic activity against VEGF-stimulated HUVEC assessed as reduction in cell viability at 100 uM measured after 48 hrs by MTT assay relative to control. The format is functional, Homo sapiens.
The test system of test [3] is HUVEC. Put plainly: Antiangiogenic activity against VEGF-stimulated HUVEC assessed as reduction in cell viability at 10 uM measured after 48 hrs by MTT assay relative to control. In kind it is functional.
The target in test [4] is Endoplasmic reticulum chaperone BiP (Homo sapiens) (UniProt P11021). The note with it: dose 500.0 µM.
Description: Binding affinity to N-terminal His-tagged GRP78 (unknown origin) assessed as change in melting temperature at 500 uM by differential scanning fluorimetry
The subject of test [5] is HUVEC. As to the kind of experiment: Antiangiogenic activity against VEGF-stimulated HUVEC assessed as reduction in cell viability up to 100 uM measured after 48 hrs by MTT assay. In kind it is functional, cell-based. The settings on record: Homo sapiens, dose microM <=100, time 48.0 hrs.
The subject of test [6] is 786-0. As to the kind of experiment: Cytotoxicity against human 786-0 cells assessed reduction in cell viability after 48 hrs by MTT assay. In kind it is functional.
In test [7] the test system is HUVEC. As to the kind of experiment: Antiangiogenic activity against VEGF-stimulated HUVEC assessed as reduction in cell viability measured after 48 hrs by MTT assay. The note with it: Homo sapiens. The format is functional, cell-based.
Test [8] has as its system 786-0. As to the kind of experiment: Cytotoxicity against human 786-0 cells assessed reduction in cell viability at 10 uM after 48 hrs by MTT assay. The format is functional, cell-based.
Test [9] deals with 786-0. As to the kind of experiment: Cytotoxicity against human 786-0 cells assessed reduction in cell viability at 100 uM after 48 hrs by MTT assay. The format is functional, cell-based.

Each structure is given as a SMILES string. Calls of active or inactive are those of the source. The calls are words filed in the database; no cut-off is given here.

Sequence of Endoplasmic reticulum chaperone BiP (Homo sapiens) (P11021 whole entry): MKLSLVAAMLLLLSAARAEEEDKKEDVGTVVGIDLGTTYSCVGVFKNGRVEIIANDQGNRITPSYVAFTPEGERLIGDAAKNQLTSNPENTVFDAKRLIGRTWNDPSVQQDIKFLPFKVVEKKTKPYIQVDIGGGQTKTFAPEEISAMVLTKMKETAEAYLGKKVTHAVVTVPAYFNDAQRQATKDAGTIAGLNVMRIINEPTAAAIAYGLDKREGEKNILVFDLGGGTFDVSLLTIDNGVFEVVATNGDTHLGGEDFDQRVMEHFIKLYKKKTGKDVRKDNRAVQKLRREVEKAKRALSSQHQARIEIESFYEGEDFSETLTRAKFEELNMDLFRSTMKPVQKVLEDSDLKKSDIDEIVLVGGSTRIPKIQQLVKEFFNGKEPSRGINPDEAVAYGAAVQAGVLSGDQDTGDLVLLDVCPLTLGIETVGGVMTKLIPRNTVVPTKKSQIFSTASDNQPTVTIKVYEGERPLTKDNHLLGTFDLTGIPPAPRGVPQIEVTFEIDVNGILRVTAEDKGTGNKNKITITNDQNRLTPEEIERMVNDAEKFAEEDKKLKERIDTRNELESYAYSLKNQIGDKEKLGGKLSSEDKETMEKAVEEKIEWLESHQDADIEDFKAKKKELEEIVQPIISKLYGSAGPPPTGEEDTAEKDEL

`O=C(/C=C/c1ccc(O)c(O)c1)OCCc1ccc(Br)cc1`: the RBA in test [1] came to 90%. Also, the Activity in the test with HUVEC [2] was 50%. Besides, in the test with HUVEC [3] (Homo sapiens), the result was inactive.

For the compound `Nc1ncnc2c1ncn2[C@@H]1O[C@H](COP(=O)(O)OP(=O)(O)OP(=O)(O)O)[C@@H](O)[C@H]1O`, in test [4], the ΔTm stood at 4.65 °C.

Turning to `O=C(/C=C/c1ccc(O)c(O)c1)OCCc1ccccc1`, the RBA in [1] is 98%.

On to `O=C(O[C@@H]1Cc2c(O)cc(O)cc2O[C@@H]1c1cc(O)c(O)c(O)c1)c1cc(O)c(O)c(O)c1`, for which the RBA in [1] amounted to 271%. The outcome with HUVEC [5] was inactive.

Regarding `CC(C)CNC(=O)c1c(-c2ccc(COc3ccc(CO)cc3)cc2)oc2ccccc12`, in the test on HUVEC [2] (Homo sapiens), the outcome was Active. In addition, the CC50 in the test with 786-0 [6] and in the test with HUVEC [7] (time 48 hrs) was 10 µM throughout.

The compound `Nc1ccc2[nH]c(=O)c(=O)[nH]c2c1` gave an RBA in test [1] of 119%.

Take `COc1ccc(/C=C/C(=O)OCCc2ccccc2)cc1`: in test [1], the RBA was 64%.

For `CCOS(=O)(=O)/C=C/c1ccc(OC)c(OCCc2nc(-c3ccccc3)sc2C)c1`, in test [1], the RBA was 129%.

In [1], `CC(C)CNC(=O)c1c(-c2ccc(COC(=O)c3ccc(N(C)C)cc3)cc2)oc2ccccc12` yielded an RBA of 54%. Also, in the test on HUVEC [2], the Activity was determined as 50%. Further, the outcome in the test with HUVEC [3] (Homo sapiens) was inactive. In the test on HUVEC [7] (time 48 hrs), the half-maximal cytotoxic concentration (CC50) came out at 100 µM.

For `O=c1[nH]c2nccc(OCCc3ccccc3)c2[nH]c1=O`, in test [1], the RBA was determined as 1000%.

Consider `COc1ccc(OC)c(/C=C(\C#N)c2ccc(-c3oc4ccccc4c3C(=O)NCC(C)C)cc2)c1`, for which the cytotoxic concentration (CC50) in the test on HUVEC [7] (time 48 hrs) stood at 100 µM.

Regarding `Cc1oc(-c2ccccc2)nc1CCOc1cccc2oc(CCC(=O)O)nc12`, the RBA in test [1] was 160%.

On to `COc1cc(OC)cc(C(=O)OCc2ccc(-c3nc4cccc(C(=O)NCC(C)C)c4o3)cc2)c1`, for which, in the test on HUVEC [7], the CC50 entry was “inactive”.

`CCCCNC(=O)c1c(-c2ccc(COC(=O)c3ccc(O)cc3)cc2)oc2ccccc12`: the outcome in the test on HUVEC [2] (Homo sapiens) was Active. In addition, in the test on HUVEC [7] (time 48 hrs), the half-maximal cytotoxic concentration (CC50) was determined as 100 µM.

Regarding `COC(=O)c1c(-c2ccc(COC(=O)c3cc(O)cc(O)c3)cc2)oc2ccccc12`, the ΔTm in test [4] is -0.76 °C. In the test with 786-0 [8], the result was inactive. The result in the test with 786-0 [9] and with HUVEC [2] (Homo sapiens) was Active. Further, the CC50 in the test on HUVEC [7] (time 48 hrs) was 10 µM.

Consider `O=c1[nH]c2ccc(OCCc3ccccc3)nc2[nH]c1=O`, for which, in test [1], the RBA is 536%.

For `CC(C)CNC(=O)c1c(-c2ccc(COC(=O)Cc3ccc(O)cc3)cc2)oc2ccccc12`, the result in the test on HUVEC [2] (Homo sapiens) was Active. Further, the CC50 in the test on HUVEC [7] (time 48 hrs) worked out at 100 µM.

In the case of `CC(C)CNC(=O)c1c(-c2ccc(COC(=O)c3ccccc3)cc2)oc2ccccc12`, in the test on HUVEC [2] (Homo sapiens), the outcome was Active. Further, in the test on HUVEC [7] (time 48 hrs), the cytotoxic concentration (CC50) stood at 100 µM.

Take `CC(C)CNC(=O)c1c(-c2ccc(COC(=O)c3ccc(O)cc3)cc2)oc2ccccc12`: in the test on HUVEC [2] (Homo sapiens), the outcome was Active. Besides, the CC50 in the test on HUVEC [7] (time 48 hrs) was 100 µM.

In the case of `CC(=O)Nc1ccc(OCc2ccc(-c3oc4ccccc4c3C(=O)NCC(C)C)cc2)cc1`, the RBA in test [1] amounted to 61%. In the test with HUVEC [3], the Activity is listed as 50%. The cytotoxic concentration (CC50) in the test on HUVEC [7] (time 48 hrs) came out at 10 µM.

For the compound `COc1cc(OC)cc(C(=O)OCc2ccc(-c3oc4ccccc4c3C(=O)NCC(C)C)cc2)c1`, the RBA in test [1] stood at 143%. Further, the thermal shift (ΔTm) in test [4] was 2.65 °C. In addition, the cytotoxic concentration (CC50) in the test on 786-0 [6] and in the test with HUVEC [7] (time 48 hrs) was 10 µM in each case. Further, the Activity with HUVEC [3] stood at 50%. Moreover, in the test with HUVEC [7] (48 h), the EC50 was found to be 1.51 µM.

On to `CC(C)CNC(=O)c1cccc2nc(-c3ccc(COC(=O)Cc4ccc(O)cc4)cc3)oc12`, for which, in the test with HUVEC [2] (Homo sapiens), the outcome was Active. In addition, the CC50 with 786-0 [6] and in the test with HUVEC [7] (time 48 hrs) was 10 µM each time.

As to `CC(C)CNC(=O)c1c(-c2ccc(COC(=O)c3cc(O)cc(O)c3)cc2)oc2ccccc12`, the outcome in the test on HUVEC [2] (Homo sapiens) was Active. Besides, in the test with HUVEC [7] (time 48 hrs), the 50% cytotoxic concentration (CC50) came out at 100 µM.

Take `CC(C)CNC(=O)c1c(-c2ccc(COC(=O)/C=C/c3ccc(O)cc3)cc2)oc2ccccc12`: the outcome in the test with HUVEC [2] (Homo sapiens) was Active. Besides, in the test on HUVEC [7] (time 48 hrs), the CC50 was 100 µM.

In turn, `CC(C)CNC(=O)c1c(-c2ccc(COC(=O)c3ccccc3O)cc2)oc2ccccc12` yielded an RBA in test [1] of 501%. Also, the Activity in the test on HUVEC [3] came to 50%. Further, the CC50 in the test on HUVEC [7] (time 48 hrs) is 10 µM.

In the case of `C=CCc1ccc(O)c(-c2ccc(O)c(CC=C)c2)c1`, the outcome in the test on HUVEC [2] (Homo sapiens) was Active.

`CC(C)CNC(=O)c1c(-c2ccc(CO)cc2)oc2ccccc12` came in with an RBA in test [1] of 180%. The outcome in the test with HUVEC [5] was inactive. In addition, the CC50 result in the test on HUVEC [7] was “inactive”.
